In brackets after ≈: the same amount, converted by molar mass.
Assays:
Test in all cases: Microtitre plate assay, IC90 determination
Assay type in all cases: cell-based
[1] = system: SPN 6305 (Streptococcus pneumoniae (ATCC6305)); details: for IC90 (μg/ml) SPN 6305: Streptococcus pneumoniae (ATCC6305); for IC90: Streptococcus pneumoniae, ATCC6305, Streptococcus pneumoniae (ATCC6305), read-out: IC90 (μg/ml) SPN 6305
In short: (§1)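 Growth-inhibition endpoint: resazurin added 3 h after inoculation, plates incubated overnight, fluorescence at 530/590 nm after 24 h at 37 °C. Inocula of roughly 10–60 CFU per well in Mueller-Hinton medium; compounds titrated five-fold. IC90 reported as μg/ml.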

[2] = system: STA 29213 (Staphylococcus aureus (ATCC29213)); details: for IC90: Staphylococcus aureus, ATCC29213, Staphylococcus aureus (ATCC29213), read-out: IC90 (μg/ml) STA 29213; for IC90 (μg/ml) STA 29213: Staphylococcus aureus (ATCC29213)
In short: as §1

[3] = system: BSU 43639 (Bacillus subtilis (ATCC43639)); details: Bacillus subtilis, ATCC43639, Bacillus subtilis (ATCC43639); read-out: IC90 (μg/ml) BSU 43639
[4] = system: EFA 29212 (Enterococcus faecalis (ATCC29212)); details: for IC90 (μg/ml) EFA 29212: Enterococcus faecalis (ATCC29212); for IC90: Enterococcus faecalis, ATCC29212, Enterococcus faecalis (ATCC29212), read-out: IC90 (μg/ml) EFA 29212
[5] = system: LMO 49594 (Listeria monocytogenes (ATCC49594)); details: Listeria monocytogenes, ATCC49594, Listeria monocytogenes (ATCC49594); read-out: IC90 (μg/ml) LMO 49594
[6] = system: PAE 27853 (Pseudomonas aeruginosa (ATCC27853)); details: for IC90: Pseudomonas aeruginosa, ATCC27853, Pseudomonas aeruginosa (ATCC27853), read-out: IC90 (μg/ml) PAE 27853; for IC90 (μg/ml) PAE 27853: Pseudomonas aeruginosa (ATCC27853)
[7] = system: SPY 8668 (Streptococcus pyogens (ATCC8668)); details: for IC90: Streptococcus, ATCC8668, Streptococcus pyogens (ATCC8668), read-out: IC90 (μg/ml) SPY 8668; for IC90 (μg/ml) SPY 8668: Streptococcus pyogens (ATCC8668)
[8] = system: STA RMETH (methicilline resistant Staphylococcus aureus (MRSA), a clinical isolate from the University of Antwerp); details: for IC90: Staphylococcus aureus, MRSA, read-out: IC90 (μg/ml) STA RMETH
[9] = system: STA 25923 (Staphylococcus aureus (ATCC25923)); details: Staphylococcus aureus, ATCC25923, Staphylococcus aureus (ATCC25923); read-out: IC90 (μg/ml) STA 25923

| IC90 (μg/ml) SPN 6305 [1] [µg/mL] | IC90 [2] [µg/mL] | IC90 [3] [µg/mL] | IC90 (μg/ml) EFA 29212 [4] [µg/mL] | IC90 [5] [µg/mL] | IC90 [6] [µg/mL] | IC90 [7] [µg/mL] | IC90 (μg/ml) STA RMETH [8] [µg/mL] | IC90 (μg/ml) STA 29213 [2] [µg/mL] | IC90 (μg/ml) PAE 27853 [6] [µg/mL] | IC90 (μg/ml) SPY 8668 [7] [µg/mL] | IC90 [1] [µg/mL] | IC90 [4] [µg/mL] | IC90 [9] [µg/mL] | IC90 [8] [µg/mL] | SMILES |
| --- | --- | --- | --- | --- | --- | --- | --- | --- | --- | --- | --- | --- | --- | --- | --- |
| 2.4 (≈ 3.62 µM) | 2.1 (≈ 3.17 µM) | 10.5 (≈ 15.8 µM) | 10.5 (≈ 15.8 µM) | 10.5 (≈ 15.8 µM) | 10.5 (≈ 15.8 µM) | 10.5 (≈ 15.8 µM) | 10.5 (≈ 15.8 µM) |  |  |  |  |  |  |  | COc1nc2ccc(Br)cc2cc1C(c1ccccc1)C(O)(CCCCN(C)C)c1ccc2cc(Br)ccc2c1 (stereo not shown) [Compound 7] |
| 10.5 (≈ 15.8 µM) |  |  | 2.1 (≈ 3.17 µM) |  |  |  | 2.6 (≈ 3.92 µM) | 2.4 (≈ 3.62 µM) | 5.3 (≈ 8 µM) | 10.5 (≈ 15.8 µM) |  |  |  |  | COc1nc2ccc(Br)cc2cc1C(c1ccccc1)C(O)(CCCCN(C)C)c1ccc2cc(Br)ccc2c1 (stereo not shown) [Compound 8] |
|  | 14.7 (≈ 25.2 µM) | 14.7 (≈ 25.2 µM) |  | 11.6 (≈ 19.9 µM) | 14.7 (≈ 25.2 µM) | 14.7 (≈ 25.2 µM) |  |  |  |  | 14.7 (≈ 25.2 µM) | 14.7 (≈ 25.2 µM) | 14.7 (≈ 25.2 µM) | 14.7 (≈ 25.2 µM) | COc1nc2ccc(Br)cc2cc1C(c1ccccc1)C(O)(CCCCN(C)C)c1cccc2ccccc12 (stereo not shown) [Compound 19] |
| 9.3 (≈ 15.9 µM) | 1.9 (≈ 3.26 µM) |  |  |  | 20.7 (≈ 35.5 µM) | 20.7 (≈ 35.5 µM) | 2.3 (≈ 3.94 µM) |  |  |  |  | 46.3 (≈ 79.3 µM) |  |  | COc1nc2cccc(Br)c2cc1C(c1ccccc1)C(O)(CCCCN(C)C)c1ccc2ccccc2c1 (stereo not shown) [Compound 29] |
| 1.9 (≈ 3.26 µM) |  |  | 1.9 (≈ 3.26 µM) |  |  |  |  | 1.9 (≈ 3.26 µM) | 1.9 (≈ 3.26 µM) | 1.9 (≈ 3.26 µM) |  |  |  | 11.6 (≈ 19.9 µM) | COc1nc2cc(Br)ccc2cc1C(c1ccccc1)C(O)(CCCCN(C)C)c1ccc2ccccc2c1 (stereo not shown) [Compound 32] |
| 9.3 (≈ 15.9 µM) |  |  | 46.3 (≈ 79.3 µM) |  |  |  | 5.8 (≈ 9.94 µM) | 4.1 (≈ 7.03 µM) | 52.0 (≈ 89.1 µM) | 46.3 (≈ 79.3 µM) |  |  |  |  | COc1nc2cc(Br)ccc2cc1C(c1ccccc1)C(O)(CCCCN(C)C)c1ccc2ccccc2c1 (stereo not shown) [Compound 33] |
|  | 2.1 (≈ 3.93 µM) |  |  |  |  |  |  |  | 8.5 (≈ 15.9 µM) | 3.8 (≈ 7.11 µM) | 1.7 (≈ 3.18 µM) | 8.5 (≈ 15.9 µM) |  | 10.7 (≈ 20 µM) | COc1ccc2cc(C(O)(CCCCN(C)C)C(c3ccccc3)c3cc4ccccc4nc3OC)ccc2c1 (stereo not shown) [Compound 35] |
| 1.8 (≈ 3.1 µM) | 7.3 (≈ 12.6 µM) |  | 1.8 (≈ 3.1 µM) |  |  |  |  |  | 1.8 (≈ 3.1 µM) | 1.8 (≈ 3.1 µM) |  |  |  | 5.2 (≈ 8.95 µM) | COc1nc2ccc(-c3ccccc3)cc2cc1C(c1ccccc1)C(O)(CCCCN(C)C)c1ccc2ccccc2c1 (stereo not shown) [Compound 40] |
| 9.2 (≈ 15.8 µM) |  | 9.2 (≈ 15.8 µM) | 9.2 (≈ 15.8 µM) | 9.2 (≈ 15.8 µM) |  |  | 9.2 (≈ 15.8 µM) | 9.2 (≈ 15.8 µM) | 36.6 (≈ 63 µM) | 9.2 (≈ 15.8 µM) |  |  |  |  | COc1nc2ccc(-c3ccccc3)cc2cc1C(c1ccccc1)C(O)(CCCCN(C)C)c1ccc2ccccc2c1 (stereo not shown) [Compound 41] |
| 0.35 (≈ 0.639 µM) | 1.73 (≈ 3.16 µM) |  | 2.18 (≈ 3.98 µM) |  |  |  |  |  | 1.73 (≈ 3.16 µM) | 1.73 (≈ 3.16 µM) |  |  |  | 10.9 (≈ 19.9 µM) | CNCCCCC(O)(CCc1ccccc1)C(c1ccccc1)c1cc2cc(Br)ccc2nc1OC (stereo not shown) [Compound 70] |
| 1.73 (≈ 3.16 µM) |  |  | 8.68 (≈ 15.9 µM) |  |  |  | 10.92 (≈ 19.9 µM) | 1.73 (≈ 3.16 µM) | 8.68 (≈ 15.9 µM) | 3.88 (≈ 7.09 µM) |  |  |  |  | CNCCCCC(O)(CCc1ccccc1)C(c1ccccc1)c1cc2cc(Br)ccc2nc1OC (stereo not shown) [Compound 71] |
